Measurements: ChEMBL document CHEMBL1131727, “Synthesis and biological evaluation of alpha-mannosidase inhibitory activity of three deoxy derivatives of mannostatin A” (Bioorg Med Chem Lett, 1999)

Assay: Compound was tested for the inhibitory activity against alpha-mannosidase

SMILES	IC50
CS[C@H]1C[C@H](O)[C@H](O)[C@@H]1N	28 µM
CS[C@H]1[C@H](O)[C@H](O)C[C@@H]1N	> 100 µM
OCC1NC(O)C(O)C(O)C1O (stereo not given)	42 µM
CS[C@@H]1[C@@H](N)[C@@H](O)C[C@H]1O	31 µM
CS[C@@H]1[C@@H](N)[C@@H](O)[C@@H](O)[C@H]1O [MANNOSTATIN A]	0.24 µM
